From patent US12275684B2, “Methods for making and using endoxifen” (Atossa Therapeutics, Inc., priority 2017, dated 2025)
Where “and” joins values, the source holds several entries; their conditions need not be identical. Equal values may be shown once. Read-outs that look alike come from different tables or passages of the source.

Assays:
[1] = Accelerated 10-day stability study of solid (Z)-endoxifen free base (E/Z by HPLC); assay type: physicochemical; details: for (E)-endoxifen content / (Z)-endoxifen content / E/Z ratio / Total Impurity: solid
Procedure: (§1) HPLC-UV analyses of the samples was carried out using a Luna phenyl-hexyl column (4.6 mm×150 mm×3 μm of particle size). The column temperature was 40° C. and sample compartment temperature was maintained at ambient temperature. Samples were prepared by dissolving solids and filtrates at 0.2 mg/ml of sample in methanol as sample buffer. Samples were then injected into the column in an injection volume of 20 μl. Likewise, mildly acidic (pH 4.3) ammonium formate buffer/methanol in the mobile phase with gradient elution was used. Mobile phase system consisting of: Mobile Phase A (MPA) buffer was 10 mM HCOONH4 with 0.03% HCOOH buffer in water, and Mobile Phase B (MBP) buffer was 10 mM HCOONH4 in methanol with a gradient program used.
(§2) The run time was 30 m, the flow rate was 1.0 mL/m, and the delay time was 5 m. Samples were detected by UV detection at 243 nm. Retention times were typically from 12.95 to 13.20 m for (E)-endoxifen and from 14.0 to 14.33 m for (Z)-endoxifen. Relative Retention Time (RRT) for (E)-endoxifen was […] and 1.0 for (Z)-endoxifen.
(§3) The stability of (Z)-endoxifen free base Sample 1 of Table 11 was studied when stored at various temperatures in solid form and in ethanol (EtOH) solution. The (E)-endoxifen and (Z)-endoxifen levels were measured on days 2, 7 and 10 following placement of 1 g aliquots of purified (Z)-endoxifen free base in 180 mL HDPE bottles under dry N2, which were then placed in double LDPE bags. The double bagged HDPE bottles containing each sample were individually packed in aluminum foil bags and thermally sealed until they were opened for testing the stability of the samples. The (E)- and (Z)-isomers of endoxifen were monitored by HPLC as disclosed above. The purity of (Z)-endoxifen in solid form remained at about 97% at 40° C., 60° C., and 80° C. up to 10 days.

[2] = Accelerated stability study of (Z)-endoxifen free base solution in ethanol (E/Z by HPLC); assay type: physicochemical
Procedure: as §1, §2, §3

[3] = cited from earlier work
[4] = 2.8 mg/mL in 70% EtOH, 25° C., 2 days
[5] = 2.8 mg/mL in 70% EtOH, 25° C., 7 days
[6] = 2.8 mg/mL in 70% EtOH, 25° C., 10 days
[7] = 2.8 mg/mL in 70% EtOH, 40° C., 2 days
[8] = 2.8 mg/mL in 70% EtOH, 40° C., 7 days
[9] = 2.8 mg/mL in 70% EtOH, 40° C., 10 days
[10] = 10 mg/mL in 99.5% EtOH, 25° C., 2 days
[11] = 10 mg/mL in 99.5% EtOH, 25° C., 7 days
[12] = 10 mg/mL in 99.5% EtOH, 25° C., 10 days
[13] = 10 mg/mL in 99.5% EtOH, 40° C., 2 days
[14] = 10 mg/mL in 99.5% EtOH, 40° C., 7 days
[15] = 10 mg/mL in 99.5% EtOH, 40° C., 10 days

CC/C(=C(\c1ccc(O)cc1)c1ccc(OCCNC)cc1)c1ccccc1 [(Z)-Endoxifen, (Z)-4-(1-(4-(2-(methylamino)ethoxy)phenyl)-2-phenylbut-1-enyl) phenol]
purity of (Z)-endoxifen in solid form ([1]; 40° C., 60° C., and 80° C. up to 10 days): about 97%
(E)-endoxifen content ([1]; 40° C., 2 days): 1.27%
(Z)-endoxifen content ([1]; 40° C., 2 days): 97.45%
E/Z ratio ([1]; 40° C., 2 days): 1/76
Total Impurity ([1]; 40° C., 2 days): 1.28%
(E)-endoxifen content ([1]; 40° C., 7 days): 1.2%
(Z)-endoxifen content ([1]; 40° C., 7 days): 97.11%
E/Z ratio ([1]; 40° C., 7 days): 1/81
Total Impurity ([1]; 40° C., 7 days): 1.69%
(E)-endoxifen content ([1]; 40° C., 10 days): 1.29%
(Z)-endoxifen content ([1]; 40° C., 10 days): 97.31%
E/Z ratio ([1]; 40° C., 10 days): 1/75
Total Impurity ([1]; 40° C., 10 days): 1.40%
(E)-endoxifen content ([1]; 60° C., 2 days): 1.30%
(Z)-endoxifen content ([1]; 60° C., 2 days): 97.43%
E/Z ratio ([1]; 60° C., 2 days): 1/75
Total Impurity ([1]; 60° C., 2 days): 1.27%
(E)-endoxifen content ([1]; 60° C., 7 days): 1.17%
(Z)-endoxifen content ([1]; 60° C., 7 days): 97.1%
E/Z ratio ([1]; 60° C., 7 days): 1/83
Total Impurity ([1]; 60° C., 7 days): 1.72%
(E)-endoxifen content ([1]; 60° C., 10 days): 1.27%
(Z)-endoxifen content ([1]; 60° C., 10 days): 97.48%
E/Z ratio ([1]; 60° C., 10 days): 1/82
Total Impurity ([1]; 60° C., 10 days): 1.33%
(E)-endoxifen content ([1]; 80° C., 2 days): 1.28%
(Z)-endoxifen content ([1]; 80° C., 2 days): 97.42%
E/Z ratio ([1]; 80° C., 2 days): 1/76
Total Impurity ([1]; 80° C., 2 days): 1.30%
(E)-endoxifen content ([1]; 80° C., 7 days): 1.34%
(Z)-endoxifen content ([1]; 80° C., 7 days): 96.92%
E/Z ratio ([1]; 80° C., 7 days): 1/72
Total Impurity ([1]; 80° C., 7 days): 1.74%
(E)-endoxifen content ([1]; 80° C., 10 days): 1.27%
(Z)-endoxifen content ([1]; 80° C., 10 days): 97.33%
E/Z ratio ([1]; 80° C., 10 days): 1/77
Total Impurity ([1]; 80° C., 10 days): 1.40%
interconversion of (Z)- to (E)-endoxifen in solid form ([1]; tested temperatures up to 10 days): does not interconvert to (E)-endoxifen
(E)-endoxifen content [2, 4]: (2.09%/
(Z)-endoxifen content [2, 4]: 96.59%)
E/Z ratio [2, 4]: 1/46
Total Impurity [2, 4]: 1.33%
(E)-endoxifen content [2, 5]: (5.62%
(Z)-endoxifen content [2, 5]: 92.67%)
E/Z ratio [2, 5]: 1/17
Total Impurity [2, 5]: 1.71%
(E)-endoxifen content [2, 6]: (10.46%/
(Z)-endoxifen content [2, 6]: 88.20%)
Total Impurity [2, 6]: 1.34%
(E)-endoxifen content [2, 7]: (4.43%/
(Z)-endoxifen content [2, 7]: 94.23%)
E/Z ratio [2, 7]: 1/21
Total Impurity [2, 7]: 1.34%
(E)-endoxifen content [2, 8]: (15.23%/
(Z)-endoxifen content [2, 8]: 83.04%)
Total Impurity [2, 8]: 1.73%
(E)-endoxifen content [2, 9]: (22.59%/
(Z)-endoxifen content [2, 9]: 76.09%)
Total Impurity [2, 9]: 1.32%
(E)-endoxifen content [2, 10]: (1.37%/
(Z)-endoxifen content [2, 10]: 97.33%)
E/Z ratio [2, 10]: 1/71
Total Impurity [2, 10]: 1.3%
(E)-endoxifen content [2, 11]: (1.91%/
(Z)-endoxifen content [2, 11]: 96.37%)
E/Z ratio [2, 11]: 1/50
Total Impurity [2, 11]: 1.72%
(E)-endoxifen content [2, 12]: (2.58%/
(Z)-endoxifen content [2, 12]: 96.03%)
E/Z ratio [2, 12]: 1/37
Total Impurity [2, 12]: 1.39%
(E)-endoxifen content [2, 13]: (1.70%/
(Z)-endoxifen content [2, 13]: 96.98%)
E/Z ratio [2, 13]: 1/57
Total Impurity [2, 13]: 1.32%
(E)-endoxifen content [2, 14]: (2.82%/
(Z)-endoxifen content [2, 14]: 95.45%)
E/Z ratio [2, 14]: 1/34
Total Impurity [2, 14]: 1/73%
(E)-endoxifen content [2, 15]: (3.56%/
(Z)-endoxifen content [2, 15]: 95.10%)
E/Z ratio [2, 15]: 1/27
Total Impurity [2, 15]: 1.34%
stability in alcoholic solutions ([2]; ethanol, elevated temperatures (40° C.), higher concentrations, over 10 days): surprisingly stable
Published Literature Result of Average Plasma (Z)-Endoxifen Css ([3]; oral dose 1 mg): 12.4 ng/mL and 33.1 nM
Published Literature Result of Average Plasma (Z)-Endoxifen Css ([3]; oral dose 2 mg): 18.6 ng/mL and 49.8 nM
Published Literature Result of Average Plasma (Z)-Endoxifen Css ([3]; oral dose 4 mg): 56.8 ng/mL and 152.1 nM
Published Literature Result of Average Plasma (Z)-Endoxifen Css ([3]; oral dose 8 mg): 96.8 ng/mL and 259.2 nM
